This is an account of results in PubChem BioAssay (NCI).

What all share (experiment): growth of human tumour cells (NCI), 48 h
For test [1], the system named is SNB-75 CNS.
The test system of test [2] is SK-MEL-2 melanoma.
Test [3] relates to NCI-H522 lung.
Test [4] concerns OVCAR-5 ovarian.
Test [5] has as its system A549 NSCLC.
For test [6], the system named is SK-OV-3 ovarian.
Test [7] concerns TK-10 renal.
For test [8], the system named is UO-31 renal.
The test system of test [9] is HT29 colon.
For test [10], the system named is ACHN renal.

Where “and” joins values, the source holds several entries; their conditions need not be identical. Identical values can stand only once.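 Protocol summary: plate cells (96-well), add compound at 5 concentrations, incubate 48 h, interpolate endpoints linearly. GI50 marks 50% less growth. TGI marks complete inhibition of growth.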

Take `O=C1CC(c2cccc(Br)c2)n2cccc21` (stereo unspecified): the TGI in [1] is over 100 µM; in test [2] it was 95.3 µM; in [3], over 100 µM; in test [4], over 100 µM; in test [5], over 100 µM; in test [6], over 100 µM. The TGI was over 100 µM in test [7], 66.9 µM in test [8], over 100 µM in [9] and over 100 µM in test [10].

In the case of `COc1c(O)cc2c(c1O)C(=O)/C(=C/c1ccc(O)cc1)CO2`, the TGI in test [1] is 57 µM; in [2], over 100 µM; in test [3], 33.8 µM; in test [4], 68.6 µM; in [5], over 100 µM; in test [6] it was 59.3 µM. Besides, the TGI in test [7] stood at 85 µM; in [8], 65.1 µM; in test [9], 41.1 µM; in test [10] it was 48.3 µM.

Consider `Cc1ccc(NC(=O)CSc2nc(=O)[nH]c3nc[nH]c23)cc1`, for which the TGI in test [1], in test [2], in test [3], in test [4], in test [5] and in test [6] was over 100 µM in each case. The TGI in test [7], in [8], in test [9] and in test [10] was over 100 µM in each case.

For the compound `CC(=O)OC1COC(Nc2nc(NCc3ccccc3)n(C)c(=O)c2N=O)C(OC(C)=O)C1OC(C)=O` (stereo unspecified), the TGI in test [1], in test [2], in [3], in test [4], in test [5] and in test [6] was over 10 µM throughout. Moreover, the TGI in test [7], in test [9] and in test [10] was over 10 µM in each case.

On to `O=C(N/N=C(/COc1ccc([N+](=O)[O-])cc1)N=Cc1ccncc1)c1ccncc1`, for which the TGI in test [1], in test [2], in test [3], in test [4], in [5] and in test [6] was over 100 µM throughout. Besides, the TGI in [7], in [9] and in test [10] was over 100 µM throughout.

Take `CC(=O)OC[C@@H](OC(C)=O)[C@H](OC(C)=O)[C@@H]1OC(C)(C)O[C@@H]1C1SCCCS1`: the TGI in [1], in test [2], in test [3], in [4], in [5] and in [6] was over 100 µM each time. Moreover, the TGI in test [7], in test [8] and in [10] was over 100 µM in each case.

As to `CCCCCCCCCCC1OC([C@@H](O)CC[C@H](O)C2CC[C@@H](CCCCCCCC(O)CC3=CC(C)OC3=O)O2)CCC1O` (stereo partly specified), the GI50 was 20.7 µM in [1]; 6.55 µM in test [2]; 2.49 µM in test [5]; 2.66 µM in test [8]; 1.62 µM in [10]. Also, the TGI is over 25 µM in test [1]; over 18.1 µM in test [2]; over 25 µM in test [3]; over 25 µM in [4]; over 25 µM in test [5]; over 25 µM in test [6]. Besides, the TGI was over 25 µM in test [7]; 10.4 µM in [8]; 8.79 µM and > 25 µM in [10].

As to `O=C1Nc2ccc(Cl)cc2/C1=C\c1c(Cl)nc2sccn12`, the TGI was over 100 µM in test [1]; over 100 µM in test [2]; over 100 µM in test [3]; 78.2 µM in test [4]; over 100 µM in test [6]; over 100 µM in test [7]. Moreover, the TGI in test [8] and in test [10] was over 100 µM in each case.

For `O=c1[nH]nc(Cc2ccccc2)n1CCO`, the TGI in test [2], in [3], in test [4], in test [5], in test [6] and in test [7] was over 100 µM in each case. Further, the TGI in test [8], in [9] and in test [10] was over 100 µM each time.

Take `N#Cc1c(-c2ccccc2)c(N=Nc2ccc(Cl)cc2)c(=O)n2c1[nH]c1ccccc12`: the TGI in test [1], in test [2], in test [3], in test [4], in test [5] and in test [6] was over 100 µM throughout. The TGI in test [7], in test [8] and in test [10] was over 100 µM throughout.

Take `CCCCON1C[C@H](OC(C)=O)C(OC(C)=O)[C@H](OC(C)=O)C1` (stereo partly specified): the TGI in test [1], in [2], in test [3], in test [5], in test [6] and in test [7] was over 100 µM in each case. Besides, the TGI in test [8], in [9] and in test [10] was over 100 µM in each case.

For the compound `Cc1ccc(N(CC(=O)Nc2ccc(S(=O)(=O)N3CCC(N4CCCC4)CC3)cc2)S(=O)(=O)c2ccc(Cl)cc2)cc1`, the GI50 in test [1] is 1.22 µM; in test [2] it was 1.95 µM; in [3], 1.89 µM; in test [5], 1.78 µM; in test [6], 1.82 µM; in test [7], 1.68 µM. Also, the results for the GI50 in test [8] and in test [9] were 1.6 µM and 1.87 µM, respectively. The TGI in [1] was found to be 2.73 µM; in test [2], 3.92 µM; in test [3], 3.77 µM; in test [5], 3.52 µM; in test [6], 3.29 µM; in [7] it was 3.36 µM. The TGI in test [8] was 3.27 µM; in test [9] it was 3.68 µM.

Take `O=C1c2cc(Cl)ccc2NC(=NCCCl)C2CSCN12` (stereo unspecified): the TGI in test [2], in [3], in test [4], in test [5], in [6] and in [7] was over 100 µM throughout. Further, the TGI in test [8], in test [9] and in [10] was over 100 µM each time.
